System: wacher normotoner Hunde
Test: Diastolic blood pressure in conscious normotensive dogs
Format: in vivo
Conditions: Trandolapril alone, 3 mg/kg/Tag

CCOC(=O)[C@H](CCc1ccccc1)N[C@@H](C)C(=O)N1[C@H](C(=O)O)C[C@H]2CCCC[C@@H]21 [Trandolapril, N-(1s-Carbethoxy-3-phenylpropyl)-S-alanyl-2S,3aR,7aS-octa-hydroindol-2-carbonsäure]
Senkung des diastolischen Blutdruckes: weder Verapamil-SR allein (10 mg/kg/Tag) noch Trandolapril allein (3 mg/kg/Tag) den diastolischen Blutdruck wacher normotoner Hunde zu senken vermögen

Reference: EP0508511B1 (KNOLL AG, priority 1991, dated 1992)
